Measurements published in doi:10.1101/2023.06.27.546672v1 (biorxiv, 2023).

Target: T1, apo-sMlaD (Escherichia coli, UniProt P64604)
T1 sequence (P64604 29-183 limits assumed): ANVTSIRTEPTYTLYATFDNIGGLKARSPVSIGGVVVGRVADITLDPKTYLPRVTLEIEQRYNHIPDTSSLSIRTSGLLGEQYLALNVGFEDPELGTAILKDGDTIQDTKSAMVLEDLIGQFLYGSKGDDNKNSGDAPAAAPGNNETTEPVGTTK
Assay: isothermal titration calorimetry
Type: binding

| SMILES | Kd |
| --- | --- |
| C[C@H](CCC(=O)O)[C@H]1CC[C@H]2[C@@H]3[C@H](O)C[C@@H]4C[C@H](O)CC[C@]4(C)[C@H]3CC[C@]12C [CDOC] | 61.6 ± 15.6 µM |
| C[C@H](CCC(=O)O)[C@H]1CC[C@H]2[C@@H]3CC[C@@H]4C[C@H](O)CC[C@]4(C)[C@H]3C[C@H](O)[C@]12C [DOC] | ~100 µM |
